The text below walks through data of patent publication US11066629B2, “Lipid metabolism-promoting composition including isoxanthohumol” (SUNTORY HOLDINGS LIMITED, priority 2016, dated 2021).

The subject of one data set is high-fat diet model. Kind of data set: Anti-obesity action in high-fat diet model (body weight, fat weight). Format: in vivo, Mice (C57BL/6J). From the text: The effect of isoxanthohumol on body weight increase and fat accumulation associated with high-fat diet was studied by the following procedure. In the table, “Regular diet” is control diet “D12450J” (product name, Research Diets); “60 kcal % High-fat diet” is very high-fat diet “D12492” (product name, Research Diets); and “Catechins” is a preparation “Polyphenon 70A” (product name, Mitsui Norin Co., Ltd.). Xanthohumol and isoxanthohumol were the standard samples (purity of 95% or higher) obtained in Preparation Example 1. The “Dose” in the table indicates the dose (mg) of the test substance per day per kg body weight. The main evaluation items were the body weight and the fat weight (fat around epididymis, fat around kidney/posterior abdominal wall, and fat around mesentery) of each individual (each item was measured on the last day: day 55 of administration). Mice (C57BL/6J, male, 7 weeks of age, CLEA Japan, Inc.) were purchased, and they were quarantine and acclimatized for one week. […] The selected animals were divided into groups (n=8 in each group) in the group structure shown in Table 1 by the stratified continuous randomization method based on body weight at the end of the acclimatization period. They were fed with free access to specific basic feed and water. The test substance was orally administered once per day for eight weeks. The test substance was administered until day 55, with the dosing start date defined as day 0. The duration was regarded as an administration period. During the administration period, the feed was completely replaced with a frequency of twice a week. The volume of a dosing solution was 10 mL/kg, and the amount of the test substance and the volume of the solution were calculated based on the latest body weight on the administration date. After the administration period, adipose tissue (fat around epididymis, fat around kidney/posterior abdominal wall, fat around mesentery) was extracted, and the weight was measured. Statistical analysis was performed as follows. Specifically, the average and standard error were calculated for body weight and fat weight in each group. Statistical processing was performed using Microsoft Office Excel 2003, and significant difference was tested between the regular diet group and the high-fat diet group and between the high-fat diet group and the groups excluding the regular diet group. As a statistical method, the homogeneity of variance was tested using the F-test. Student's T-test was used for homoscedasticity, and Aspin-Welch t-test was used for heteroscedasticity.

The next data set has as its system Acox1 gene. Kind of data set: Gene expression in liver by quantitative PCR, high-fat diet model. The settings on record: isoxanthohumol 30 or 60 mg/kg/day oral, 14 days. Format: in vivo, mice (C57BL/6J). The text has this:
(§1) Using the high-fat diet model, the effect of isoxanthohumol intake on expression of a gene related to fat burning was studied by the following procedure.
(§2) Thirty-two mice (C57BL/6J, male, 8 weeks of age, CLEA Japan, Inc.) were purchased and acclimatized for about one week. Then, the mice were divided into groups (n=8 in each group) in the group structure shown in Table 2 by the stratified continuous randomization method based on body weight. […] In Table 2, “Regular diet” is control diet “D12450J” (Research Diets), and “60 kcal % High-fat diet” is very high-fat diet “D12492” (Research Diets). Isoxanthohumol as the test substance was the standard sample (purity of 95% or higher) obtained in Preparation Example 1. […]
(§3) The test period was 14 days. […] The amount of the test substance and the volume of the solution were calculated based on the latest body weight on the administration date. […]
(§4) Using the extracted liver and brown adipose tissue, the effect of isoxanthohumol intake on expression of multiple genes related to lipid metabolism was studied. […] Then, cDNAs were synthesized using High-Capacity cDNA Reverse Transcription Kit (product name, Life Technologies Corporation), and the expression levels of genes shown in Table 3 were examined by quantitative PCR (TaqMan probe method) using Fast Universal PCR Master Mix (product name, Life Technologies Corporation). […]

In a further data set the test system is Cpt1a gene. The description is as above. Format: in vivo, mice (C57BL/6J). To be noted: isoxanthohumol 30 or 60 mg/kg/day oral, 14 days.
Source text: as §1, §2, §3, §4

Data set [1] concerns apoptosis inhibitor of macrophage (AIM). To be noted: mouse macrophage-derived cells (J774.1) cultured with isoxanthohumol; cited from earlier work.
The test system of data set [2] is mouse preadipocyte (3T3-L1). To be noted: 3T3-L1, concentration without cytotoxicity; cited from earlier work.
The conditions of data set [3]: heating; isoxanthohumol at 100° C.; cited from earlier work.
Where [4] appears, read: 60 mg/kg/day oral, day 55, compared to high-fat diet group.
The mark [5] stands for this setting: 180 mg/kg/day oral, day 55, compared to high-fat diet group.

For the compound `COc1cc(O)c(CC=C(C)C)c2c1C(=O)CC(c1ccc(O)cc1)O2` (centres unmarked) [isoxanthohumol], the “fat weight around epididymis” value with high-fat diet model (setting [4]) and in the data set with high-fat diet model (setting [5]) was “significantly low” throughout. Besides, the “fat weight around mesentery” value in the data set on high-fat diet model (setting [4]) and in the data set on high-fat diet model (setting [5]) was “significantly low” throughout. The “fat weight around kidney/posterior abdominal wall” value in the data set with high-fat diet model (setting [5]) was “significantly low”. The “average body weight compared with xanthohumol medium-dose group” value in the data set on high-fat diet model (isoxanthohumol 60 mg/kg vs xanthohumol 60 mg/kg, day 55) is “equivalent to that of the xanthohumol medium-dose group”. In the data set on high-fat diet model (isoxanthohumol 180 mg/kg vs catechins 300 mg/kg, day 55), the “average body weight compared with catechins group” value is listed as “better result”. Besides, the body weight entry in the data set with high-fat diet model (isoxanthohumol high-dose 180 mg/kg/day oral, day 55, compared to high-fat diet group) was “significantly low”; in the data set on high-fat diet model (isoxanthohumol medium-dose 60 mg/kg/day oral, day 55, compared to high-fat diet group) it was “tended to have a low body weight”. In the data set with Acox1 gene, the “gene expression level of Acox1 gene in the liver” value is on record as “significant increase”. Moreover, in the data set with Cpt1a gene, the “gene expression level of Cpt1a gene in the liver” value is recorded as “significant increase”. Further, in data set [1], the “expression of lipolysis-promoting factor AIM” value is “enhanced expression”. For the same compound, the “differentiation of the cells into adipocytes” value in data set [2] was “did not suppress differentiation”. Further, the thermal stability result in data set [3] is “stable even at a high temperature of 100 °C”.
